According to patent US5075289A, “9-R-azacyclic erythromycin antibiotics” (priority 1988, dated 1991):
≈ marks a conversion by molar mass, not a printed value. Read-outs that look alike come from different tables or passages of the source.

Key:
[1] = tested on: Streptococcus pneumoniae (6303); experiment: In-vivo mouse protection assay (acute mouse protection test); design: species or system Swiss albino mice; conditions: 168 h, S. pneumoniae 6303, dosed 1 and 5 hours post infection, 7 days, read-out: ED50
Protocol: (§1) The acute mouse protection test is conducted on ten mice with each of three levels of drug. Mouse mortality is used to calculate an ED50 value, i.e., the dose of drug required to protect 50% of the test animals against death due to the inoculum challenge.
(§2) The acute mouse protection test is conducted on female, Swiss albino mice, 18-20 grams in weight. […] To check the potency of the inoculum, a titration of the indicated test organism is carried out in control animals. The treatment group of animals is dosed with the test compound at 1 and 5 hours post infection and observed for 7 days. The ED50 values are calculated using the mortality data collected.

[2] = tested on: Staphylococcus aureus (NCTC 10649); experiment: as above; design: species or system Swiss albino mice; conditions: S. aureus NCTC 10649, dosed 1 and 5 hours post infection, 7 days, read-out: ED50
Protocol: as §1, §2

[3] = tested on: Streptococcus pyogenes C-203; experiment: as above; design: species or system Swiss albino mice
Protocol: as §1, §2

[4] = tested on: Haemophilus influenzae ATCC 9795; experiment: In vitro antibacterial activity, agar dilution MIC; type: cell-based; conditions: ATCC9795, H. influenzae ATCC 9795
Summary of the method: (§3)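 In agar dilution on Brain Heart Infusion agar, twelve successive compound dilutions were inoculated at 1:100 (1:10 for slow growers such as Streptococcus) by replicator and incubated 20–24 h at 35–37 °C. MIC is the lowest concentration giving no growth, slight haze or sparse colonies; erythromycin A was the class control.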

[5] = tested on: Staphylococcus aureus 45 RAR 2; experiment: microbe, parasite or virus in culture; type: cell-based; conditions: 45RAR2
Summary of the method: as §3

[6] = NCTC10649, sc, 168 h, Subcutaneous
[7] = C203, 168 h, Oral, S. pyogenes C-203, dosed 1 and 5 hours post infection, 7 days, read-out: ED50

| Structure (SMILES) | ED50 ([1]; Oral) [mg/kg] | ED50 ([1]; sc, Subcutaneous) [mg/kg] | ED50 ([2]; NCTC10649, 168 h, Oral) [mg/kg] | ED50 [2, 6] [mg/kg] | ED50 [3, 7] [mg/kg] | ED50 ([3]; C203, sc, 168 h, Subcutaneous, S. pyogenes C-203, dosed 1 and 5 hours post infection, 7 days, read-out: ED50) [mg/kg] | MIC [4] [µg/mL] | MIC [5] [µg/mL] | ED50 ([3]; C203, sc, 168 h) [mg/kg] |
| --- | --- | --- | --- | --- | --- | --- | --- | --- | --- |
| CC[C@H]1OC(=O)[C@H](C)[C@@H](O[C@H]2C[C@@](C)(OC)[C@@H](O)[C@H](C)O2)[C@H](C)[C@@H](O[C@@H]2O[C@H](C)C[C@H](N(C)C)[C@H]2O)[C@](C)(O)C[C@@H](C)[C@@H](N2CCCCC2)[C@H](C)[C@@H](O)[C@]1(C)O [Example 5] | 4.5 | 0.4 | 41.9 | 7.5 | < 7.5 | < 0.6 | 1 (≈ 1.25 µM) | 0.78 (≈ 0.971 µM) | – |
| CC[C@H]1OC(=O)[C@H](C)[C@@H](O[C@H]2C[C@@](C)(OC)[C@@H](O)[C@H](C)O2)[C@H](C)[C@@H](O[C@@H]2O[C@H](C)C[C@H](N(C)C)[C@H]2O)[C@](C)(O)C[C@@H](C)[C@@H](N2CCOCC2)[C@H](C)[C@@H](O)[C@]1(C)O [Example 19] | 9.7 | 1.1 | 44.8 | 15.5 | 9.5 | – | 4 (≈ 4.97 µM) | 0.39 (≈ 0.484 µM) | 2.1 |
